Tests used:
root defence pathways = conditions: foliar application; cited from earlier work
M. graminicola = assay: Infection experiment with JA/ET mutant and biosynthesis inhibitors, foliar spray; assay type: in vivo, Meloidogyne graminicola; conditions: inhibitor alone sprayed on wild-type (DIECA 100 μM, AoA 12.5 mM) vs wild-type/control plants; 12 days after inoculation
Description: (§1) M. graminicola originally isolated in the Philippines (Batangas) was cultured on susceptible rice plants. Second stage juveniles (J2s) were extracted using a sieve/tray extraction method and inoculation was done as described in Nahar et al., (2011). For susceptibility assays, at least two independent experiments were carried out, each time including eight plants per treatment. Twelve days after inoculation (dai), roots were stained using acid fuchsine (Nahar et al., 2011) to count galls and number of nematodes in the roots.
(§2) Reduced Ascorbic acid (AA, 20 mM), dehydroascorbic acid (DHA, 20 mM), ascorbate oxidase (AO, 20 U/ml), methyl jasmonate (MeJA, 100 μM), aminooxyacetic acid (AoA, 12.5 mM), diethyldithiocarbamic acid (DIECA, 100 μM) and ethephon (100 μM) were purchased from Sigma and dissolved in water (except MeJA that was first dissolved in a drop of ETOH) to attain the indicated concentration.
(§3) For foliar application, all chemicals were dissolved in water and 0.02% (v/v) of Tween20 as a surfactant was added prior to spraying on aerial portions of the rice plants. Control plants were sprayed with distilled water containing 0.02% Tween20. Eight plants per treatment were sprayed until run-off with 6.5 mL of solution (at 24 h prior to nematode inoculation, in cases where infected plants were used). The substrate was covered to avoid direct contact with the roots and/or nematodes.

root parasitic nematodes = conditions: root application; cited from earlier work
[1] = system: root-knot nematode Meloidogyne graminicola; assay: Susceptibility assay on rice plants, soil drench; assay type: in vivo; conditions: soil drench 24 h prior to inoculation (AA 20 mM, DHA 20 mM, AO 20 U/mL); twelve days after inoculation; vs control
Description: as §1, §2
For soil application, 6.5 mL of each solution was drenched on the substrate, 24 h prior to nematode inoculation.

Heterodera schachtii = assay: Sugar beet tolerance to beet cyst nematode infection after foliar spray; assay type: in vivo; conditions: three-weeks old sugar beet, foliar spray (AA 20 mM, AO 20 U/mL, DHA 20 mM), 250 H. schachtii per plant, 4 DAS (3 dai); for shoot height: DHA effect not statistically significant
Description: (§4) Sugar beet—seeds of cv. Amarok were germinated on moist tissue for 4-5 days at 25° C. For longer experiments seedlings were transplanted to polyvinyl-chloride (PVC) tubes containing fine soil particles. All experiments were conducted in a plant growth room at 25° C., with a 16/8 h day/night regime. The plants were fertilized by supplying Hoagland solution as a source of nutrients 3 times a week.
BNC cysts were obtained from Iran and were maintained on sugar beet (cv. Amarok) plants. Cysts were obtained from stock cultures, by washing the infected soil and letting the cysts to float in water. Full cysts with eggs were hand-picked and allowed to dry before setting up for hatching. For second-stage juveniles (J2) to hatch, cysts were placed in 3 mM of […] and transferred to an incubator/shaker at a temperature of 25.5° C. at 70 rpm for 4 days (Kammerhofer et al., 2015). J2 were re-suspended in water and counted under a stereomicroscope. Around 250-300 J2 nematodes were inoculated per plant. One day before and after inoculation, plants were not supplied with any nutrients or water. To investigate the plant tolerance to BCN infection root length, shoot height, fresh root weight as well as the number of cysts were measured at different time points after spraying and/or inoculation. For all experiments, 8 individual plants were used per treatment.
as §2, §3

[2] = system: root-knot nematode M. graminicola; assay: Susceptibility assay on rice plants, foliar spray; assay type: in vivo, Meloidogyne graminicola; conditions: foliar spray 24 h prior to inoculation (AA 20 mM, DHA 20 mM, AO 20 U/ml); 12 dai; vs control
Description: as §1, §2, §3

[3] = Ascorbate measurements in shoots and roots of foliar sprayed rice; assay type: in vivo, Oryza sativa cv. Nipponbare; conditions: 24 h after foliar application; vs control plants
Description: as §3
[…] In each assay, 100 mg of crushed material was used per sample, and at least 4 biological replicates were analyzed per treatment. Reduced and oxidized AA were measured according to the method described in Ueda et al., 2013. Absorbance was monitored using a microplate reader (TECAN—Infinite200pro).

rice seedlings = assay: Evaluation of seedling growth after drenching rice seedlings; assay type: in vivo, Oryza sativa cv. Nipponbare; conditions: 3-days old rice seedlings drenched with 1 mL (AA 20 mM, DHA 20 mM, AO 20 U/ml); 5 days after drenching; vs water control
Description: (§5) Rice—Seeds of wild-type rice Oryza sativa cv. Nipponbare were obtained from USDA (GSOR-100). Seeds were germinated on wet filter paper for 4-5 days at 30° C. and seedlings were then transferred to SAP-substrate (Sand mixed with Absorbent Polymer AquaPerla®, DCM, Belgium) and further grown at 28° C., under a light regime of (day/night) 12/12. Hoagland solution was given as a source of nutrients 3 times a week.
as §2
3-days old rice seedlings were drenched with 1 mL of AA (20 mM), AO (20 U/mL), DHA (20 mM) or water (H2O) as a negative control. Rice root length and dry root weight as well as the number of embryonic crown roots (ECR) were measured 5 days after drenching.

[4] = system: root-knot nematode Meloidogyne graminicola; assay: Root growth in rice after foliar spray, nematode-infected conditions (tolerance); assay type: in vivo; conditions: 14-days old rice, foliar spray AO 20 U/mL, 250 nematodes per plant, time point not stated
Description: as §5, §1, §2, §3

sugar beet plants = assay: Root and shoot growth in uninfected sugar beet plants after foliar spray; assay type: in vivo, Beta vulgaris cv. Amarok; conditions: two-week old sugar beet, seven days later
Description: as §4, §2, §3

[5] = foliar spray, effect not statistically significant

For `CC/C=C\CC1C(=O)CCC1CC(=O)OC` (stereo not drawn) [MeJA, methyl jasmonate], the “activation of root defence pathways” value (root defence pathways) is listed as “can activate root defence pathways with varying efficacy”.

With `NOCC(=O)O` [AoA, aminooxyacetic acid, reference compound] the number of galls (M. graminicola) was “significantly higher number of galls”.

In the case of `CC(N)CC(=O)O` (stereo not drawn) [BABA, β-aminobutyric acid], the “rice plant defence, tolerance or resistance against root parasitic nematodes” value (“rice plant defence” for short) (root parasitic nematodes) is given as “enhances the rice plant defence system”.

In the case of `O=P(O)(O)CCCl` [ethephon], the “activation of root defence pathways” value (root defence pathways) is given as “can activate root defence pathways with varying efficacy”.

For `Cc1ncc(C[n+]2csc(CCO)c2C)c(N)n1` [thiamine], the “rice plant defence” value (root parasitic nematodes) is given as “enhances the rice plant defence system”.

For silicon, the “rice plant defence” value (root parasitic nematodes) is listed as “enhances the rice plant defence system”.

For `O=C1O[C@H]([C@@H](O)CO)C(O)=C1O` [AA, ascorbic acid], the number of galls [1] was “significantly lower number of galls”, the number of nematodes [1] was “lower number of nematodes” and the root length (Heterodera schachtii) was “None of the other treatments (AA or AO) had significant effects”. For the same molecule, the root weight (Heterodera schachtii) was “None of the other treatments (AA or AO) had significant effects”, the shoot weight (Heterodera schachtii) was “None of the other treatments (AA or AO) had significant effects” and the shoot height (Heterodera schachtii) was “None of the other treatments (AA or AO) had significant effects”. The number of galls [2] was “no significant differences”, the number of nematodes [2] was “no significant differences” and the “amount of reduced AA in roots” value [3] was “no changes”. For the same molecule, the “amount of reduced AA in shoots” value [3] was “significantly increased”, the “number of embryonic crown roots (ECR)” value (rice seedlings) was “significantly fewer ECR” and the root length (rice seedlings) was “slightly shorter roots”.

With `CCN(CC)C(=S)S` [DIECA, diethyldithiocarbamic acid, reference compound] the number of galls (M. graminicola) was “significantly increased number of galls”.

B1: AO: ascorbate oxidase, purchased from Sigma, used at 20 U/ml (protein, UniProt P37064 1-552, looked up)
L-ascorbate oxidase: SQIRHYKWEVEYMFWAPNCNENIVMGINGQFPGPTIRANAGDSVVVELTNKLHTEGVVIHWHGILQRGTPWADGTASISQCAINPGETFFYNFTVDNPGTFFYHGHLGMQRSAGLYGSLIVDPPQGKKEPFHYDGEINLLLSDWWHQSIHKQEVGLSSKPIRWIGEPQTILLNGRGQFDCSIAAKYDSNLEPCKLKGSESCAPYIFHVSPKKTYRIRIASTTALAALNFAIGNHQLLVVEADGNYVQPFYTSDIDIYSGESYSVLITTDQNPSENYWVSVGTRARHPNTPPGLTLLNYLPNSVSKLPTSPPPQTPAWDDFDRSKNFTYRITAAMGSPKPPVKFNRRIFLLNTQNVINGYVKWAINDVSLALPPTPYLGAMKYNLLHAFDQNPPPEVFPEDYDIDTPPTNEKTRIGNGVYQFKIGEVVDVILQNANMMKENLSETHPWHLHGHDFWVLGYGDGKFSAEEESSLNLKNPPLRNTVVIFPYGWTAIRFVADNPGVWAFHCHIEPHLHMGMGVVFAEGVEKVGRIPTKALACGGTAKSLINNPKNP
For B1, the number of galls [1] was “no significant difference”, the number of nematodes [1] was “no significant difference” and the root length (Heterodera schachtii) was “None of the other treatments (AA or AO) had significant effects”. The root weight (Heterodera schachtii) was “None of the other treatments (AA or AO) had significant effects”, the shoot weight (Heterodera schachtii) was “None of the other treatments (AA or AO) had significant effects” and the shoot height (Heterodera schachtii) was “None of the other treatments (AA or AO) had significant effects”. For the same molecule, the number of galls [2] was “significantly lower number of galls”, the number of nematodes [2] was “lower number of nematodes” and the root length [4] was “slightly increased root length”. For the same molecule, the root length (sugar beet plants; foliar spray (DHA 20 mM, AO 20 U/mL), vs water control) was “significantly longer roots”, the fresh root weight (sugar beet plants; [5]) was “positively affected” and the shoot length (sugar beet plants; [5]) was “positively affected”. The “DHA level in roots” value [3] was “accumulating”, the “total levels of reduced and oxidized ascorbate in shoots” value [3] was “slightly decreased” and the dry root weight (rice seedlings) was “some positive effects”. The “number of embryonic crown roots (ECR)” value (rice seedlings) was “some positive effects” and the root length (rice seedlings) was “no root length effects”.

Source: patent US20230104477A1, “USE OF DEHYDROASCORBIC ACID AGAINST NEMATODE INFECTION IN PLANTS” (Universiteit Gent, priority 2019, published 2023)
